Measured values published in patent US9315546B2, “Growth hormone secretatogue receptor antagonists and uses thereof” (The Administrators of the Tulane Educational Fund, priority 2010, dated 2016).
“And” between values parts separate entries of the source, which are not always exact repeats. Identical values can stand only once. Where no end group is shown, it is not given here. [ ]: non-standard residue; d: D form. d2Nal = N[C@H](Cc1ccc2ccccc2c1)C(=O)O; Orn = NCCC[C@H](N)C(=O)O; Aib = CC(C)(N)C(=O)O; GABA = NCCCC(=O)O; βAla = NCCC(=O)O

Biological target: Ghrelin/GHRP/GHS Receptor (Rattus norvegicus, UniProt O08725)
Assay: In vivo GH release in rat after i.v. peptide (serum GH by RIA)
Procedure: For the in vivo assay of GH Release in rat, immature female Sprague Dawley rats were obtained from Charles River from Wilmington, Mass. After arrival they were housed at 25° C. with a 14:10 h light:dark cycle. Water and Purina rat chow were available at libitum. Pups were weaned at 21 days of age.
Immature twenty six day old female Sprague Dawley rats, 3-6 rats per treatment dose, were pretreated with pentobarbital 20 minutes before iv injection of vehicle/peptide or peptide plus stimulator. Injection was made as a 0.1 ml solution. For the non-pentobarbital treated rat assay, peptides were administered iv into the tail vein of conscious rats. All animals were sacrificed by guillotine after iv peptide or vehicle. Trunk blood was collected at +10-15 minutes […], allowed to clot, centrifuged and serum stored until assayed for GH levels by RIA. The GH RIA reagents were distributed by the NIH. Control data was collected from rats treated with only the corresponding vehicle in the absence of peptide or stimulator. Control stimulated data was collected from rats treated with stimulator alone in the absence of any peptide.

[1] = Table 5, peptide alone 10 μg i.v.
[2] = Table 5, peptide alone 30 μg i.v.
[3] = Table 5, peptide alone 1 μg i.v.
[4] = Table 3, peptide alone 3 μg i.v.
[5] = Table 3, peptide alone 10 μg i.v.
[6] = Table 3, peptide alone 30 μg i.v.
[7] = Table 3, peptide alone 100 μg i.v.
[8] = Non-Pentobarbital Rats, peptide 30 μg i.v. + stimulator 10 μg
[9] = Non-Pentobarbital Rats, peptide alone 30 μg i.v.
[10] = Table 3, peptide alone 1 μg i.v.
[11] = peptide antagonist 3 μg i.v. + stimulator 1 μg
[12] = peptide antagonist 10 μg i.v. + stimulator 1 μg
[13] = peptide antagonist 30 μg i.v. + stimulator 1 μg
[14] = peptide antagonist 100 μg i.v. + stimulator 1 μg
[15] = Table 5, peptide alone 3 μg i.v.
[16] = Pentobarbital Rats, peptide alone 30 μg i.v.
[17] = Pentobarbital Rats, peptide alone 100 μg i.v.
[18] = peptide antagonist 30 μg i.v. + stimulator 0.3 μg

Ghrelin/GHRP/GHS Receptor, sequence (O08725 whole entry): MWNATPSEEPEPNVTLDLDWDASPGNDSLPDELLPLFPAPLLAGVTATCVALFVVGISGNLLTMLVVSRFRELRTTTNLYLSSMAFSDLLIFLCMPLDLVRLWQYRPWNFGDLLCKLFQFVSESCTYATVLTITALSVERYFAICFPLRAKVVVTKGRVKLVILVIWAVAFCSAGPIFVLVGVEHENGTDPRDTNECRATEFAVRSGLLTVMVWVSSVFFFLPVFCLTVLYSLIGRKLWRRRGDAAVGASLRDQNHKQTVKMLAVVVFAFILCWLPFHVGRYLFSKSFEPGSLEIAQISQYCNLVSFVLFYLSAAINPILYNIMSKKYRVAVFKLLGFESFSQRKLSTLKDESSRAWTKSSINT

With “[dA]A[dA][dW]FK-NH2 [6-DAla-Ala-DAla-DTrp-Phe-Lys-NH2]” the “Unstimulated Basal GH release” value [1] was 228 ± 76 ng/mL, the “Unstimulated Basal GH release” value [2] was 172 ± 14 ng/mL and the “Unstimulated Basal GH release” value (Table 5, peptide alone 100 μg i.v.) was 153 ± 45 ng/mL.
For “[GABA][dW][dW][Orn]-NH2 [9-γAbu-DTrp-DTrp-Orn-NH2]”, the “Unstimulated Basal GH release” value [3] was 82 ± 28 ng/mL, the “Unstimulated Basal GH release” value [1] was 90 ± 5 ng/mL and the “Unstimulated Basal GH release” value [2] was 113 ± 32 ng/mL.
For “[d2Nal]AW[dF]L-NH2 [7-DβNal-Ala-Trp-DPhe-Leu-NH2]”, the “Unstimulated Basal GH release” value [4] was 253 ± 79 ng/mL, the “Unstimulated Basal GH release” value [5] was 277 ± 43 ng/mL and the “Unstimulated Basal GH release” value [6] was 347 ± 66 ng/mL. The “Unstimulated Basal GH release” value [7] was 645 ± 117 ng/mL.
In the case of “Y[dA]F[Aib]-NH2 [1-Tyr-DAla-Phe-Aib-NH2]”, the “Stimulated GH release (P + S)” value [8] is reported as 23 ± 5 ng/mL and the “Unstimulated GH release (−S)” value [9] is reported as 18 ± 1 ng/mL.
For “αγAbu-DTrp-DTrp-Ser-NH2 [1-αγAbu-DTrp-DTrp-Ser-NH2]”, the “Unstimulated Basal GH release” value [3] was 80 ± 35 ng/mL, the “Unstimulated Basal GH release” value [1] was 62 ± 15 ng/mL and the “Unstimulated Basal GH release” value [2] was 67 ± 8 ng/mL.
“[dA][d2Nal]AT[dT]K-NH2 [4-DAla-DβNal-Ala-Thr-DThr-Lys-NH2]” was tested, and the “Unstimulated Basal GH release” value [4] was 255 ± 38 ng/mL, the “Unstimulated Basal GH release” value [6] was 288 ± 31 ng/mL and the “Unstimulated Basal GH release” value [7] was 386 ± 57 ng/mL.
With “DcyclohexylAla-Ala-Phe-DTrp-Lys-NH2 [3-DcyclohexylAla-Ala-Phe-DTrp-Lys-NH2]” the “Unstimulated Basal GH release” value [10] was 199 ± 63 ng/mL, the “Unstimulated Basal GH release” value [4] was 266 ± 68 ng/mL and the “Unstimulated Basal GH release” value [5] was 199 ± 23 ng/mL. For the same substance, the “Unstimulated Basal GH release” value [6] was 346 ± 82 ng/mL and the “Unstimulated Basal GH release” value [7] was 350 ± 61 ng/mL.
For Glyψ[CH2NH]-DβNal-DLys-Trp-DPhe-Lys-NH2, the “Stimulated GH release” value (peptide antagonist 1 μg i.v. + stimulator 1 μg) was 2305 ± 320 ng/mL, the “Stimulated GH release” value [11] was 1990 ± 196 ng/mL and the “Stimulated GH release” value [12] was 1550 ± 284 ng/mL. For the same substance, the “Stimulated GH release” value [13] was 946 ± 133 ng/mL and the “Stimulated GH release” value [14] was 462 ± 122 ng/mL.
“[βAla]W[dA][dW]F-NH2 [10-βAla-Trp-DAla-DTrp-Phe-NH2]” was tested, and the “Unstimulated Basal GH release” value [6] was 341 ± 46 ng/mL and the “Unstimulated Basal GH release” value [7] was 636 ± 171 ng/mL.
With “[dA][d2Nal][dA][dW]FK-NH2 [9-DAla-DβNal-DAla-DTrp-Phe-Lys-NH2]” the “Unstimulated Basal GH release” value [10] was 184 ± 55 ng/mL, the “Unstimulated Basal GH release” value [4] was 467 ± 201 ng/mL and the “Unstimulated Basal GH release” value [5] was 244 ± 107 ng/mL.
In the case of “Alaψ[CH2NH]His-DTrp-Ala-Trp-DPhe-Lys-NH2”, the “Unstimulated Basal GH release” value [3] is reported as 127 ± 32 ng/mL and the “Unstimulated Basal GH release” value [15] is reported as 147 ± 37 ng/mL.
For “αγAbu-DTrp-DTrp-Orn-NH2 [3-αγAbu-DTrp-DTrp-Orn-NH2]”, the “Unstimulated Basal GH release” value [3] was 118 ± 16 ng/mL, the “Unstimulated Basal GH release” value [1] was 126 ± 27 ng/mL and the “Unstimulated Basal GH release” value [2] was 79 ± 31 ng/mL.
“DcyclohexylAla-Ala-Trp-DPhe-NH2 [5-DcyclohexylAla-Ala-Trp-DPhe-NH2]” was tested, and the “Unstimulated Basal GH release” value [4] was 181 ± 28 ng/mL, the “Unstimulated Basal GH release” value [5] was 237 ± 18 ng/mL and the “Unstimulated Basal GH release” value [6] was 354 ± 81 ng/mL. For the same substance, the “Unstimulated Basal GH release” value [7] was 771 ± 76 ng/mL.
In the case of “DAla-DβNal-Ala-Ala-DAla-Lys-NH2 [6-DAla-DβNal-Ala-Ala-DAla-Lys-NH2]”, the “Unstimulated Basal GH release” value [4] is reported as 235 ± 43 ng/mL, the “Unstimulated Basal GH release” value [5] is reported as 178 ± 33 ng/mL and the “Unstimulated Basal GH release” value [6] is reported as 172 ± 15 ng/mL. The “Unstimulated Basal GH release” value [7] was 185 ± 39 ng/mL.
“[dA][d2Nal][dK][dW]FK-NH2 [3-DAla-DβNal-DLys-DTrp-Phe-Lys-NH2]” was tested, and the “Stimulated GH release (P + S)” value (Pentobarbital Rats, peptide 30 μg i.v. + stimulator 1 μg) was 2864 ± 828 ng/mL, the “Stimulated GH release (P + S)” value (Pentobarbital Rats, peptide 100 μg i.v. + stimulator 1 μg) was 1198 ± 114 ng/mL and the “Unstimulated GH release (−S)” value [16] was 323 ± 50 ng/mL. The “Unstimulated GH release (−S)” value [17] was 812 ± 6 ng/mL, the “Stimulated GH release” value [13] was 2884 ± 828 ng/mL and the “Stimulated GH release” value [14] was 1198 ± 114 ng/mL.
In the case of “[d2Nal]AW[dF]A-NH2 [1-DβNal-Ala-Trp-DPhe-Ala-NH2]”, the “Unstimulated Basal GH release” value [10] is reported as 623 ± 60 ng/mL, the “Unstimulated Basal GH release” value [4] is reported as 694 ± 70 ng/mL and the “Unstimulated Basal GH release” value [5] is reported as 654 ± 58 ng/mL. For the same substance, the “Unstimulated Basal GH release” value [6] was 713 ± 71 ng/mL.
With “αγAbu-DTrp-DTrp-Lys-NH2 [2-αγAbu-DTrp-DTrp-Lys-NH2]” the “Unstimulated Basal GH release” value [3] was 57 ± 7 ng/mL, the “Unstimulated Basal GH release” value [15] was 84 ± 18 ng/mL and the “Unstimulated Basal GH release” value [1] was 62 ± 15 ng/mL.
In the case of “DThr-DαNal-DTrp-DPro-Arg-NH2 [5-DThr-DαNal-DTrp-DPro-Arg-NH2]”, the “Unstimulated Basal GH release” value [3] is reported as 60 ± 5 ng/mL, the “Unstimulated Basal GH release” value [15] is reported as 130 ± 24 ng/mL and the “Unstimulated Basal GH release” value [1] is reported as 134 ± 31 ng/mL.
“[dK][d2Nal]AW[dF]K-NH2 [1-DLys-DβNal-Ala-Trp-DPhe-Lys-NH2]” was tested, and the “Stimulated GH release (P + S)” value (Pentobarbital Rats, peptide 3 μg i.v. (grid head; alignment uncertain) + stimulator 0.3 μg) was 5232 ± 346 ng/mL, the “Stimulated GH release (P + S)” value (Pentobarbital Rats, peptide 10 μg i.v. (grid head; alignment uncertain) + stimulator 0.3 μg) was 3404 ± 396 ng/mL and the “Stimulated GH release (P + S)” value (Pentobarbital Rats, peptide 30 μg i.v. + stimulator 0.3 μg) was 704 ± 169 ng/mL. The “Unstimulated GH release (−S)” value (Pentobarbital Rats, peptide alone 3 μg i.v. (grid head; alignment uncertain)) was 616 ± 169 ng/mL, the “Unstimulated GH release (−S)” value (Pentobarbital Rats, peptide alone 10 μg i.v. (grid head; alignment uncertain)) was 847 ± 17 ng/mL and the “Unstimulated GH release (−S)” value [16] was 629 ± 146 ng/mL. For the same substance, the “Unstimulated GH release (−S)” value [17] was 228 ± 45 ng/mL.
With “Glyψ[CH2NH]-DβNal-Ala-Trp-DPhe-Lys-NH2 [1-Glyψ[CH2NH]-DβNal-Ala-Trp-DPhe-Lys-NH2]” the “Stimulated GH release” value (peptide antagonist 10 μg i.v. + stimulator 0.3 μg) was 1112 ± 200 ng/mL, the “Stimulated GH release” value [12] was 2307 ± 176 ng/mL and 1842 ± 454 ng/mL and the “Stimulated GH release” value [18] was 578 ± 82 ng/mL. The “Stimulated GH release” value [13] was 890 ± 236 ng/mL and 1135 ± 140 ng/mL.
“inip-Trp-Trp-Phe-NH2 [10-inip-Trp-Trp-Phe-NH2]” was tested, and the “Unstimulated Basal GH release” value [1] was 69 ± 3 ng/mL and the “Unstimulated Basal GH release” value [2] was 81 ± 10 ng/mL.
“DAla-DcyclohexylAla-Ala-Phe-DPhe-Nle-NH2” was tested, and the “Unstimulated Basal GH release” value [10] was 435 ± 152 ng/mL, the “Unstimulated Basal GH release” value [4] was 195 ± 34 ng/mL and the “Unstimulated Basal GH release” value [5] was 250 ± 41 ng/mL. For the same substance, the “Unstimulated Basal GH release” value [6] was 393 ± 51 ng/mL and the “Unstimulated Basal GH release” value [7] was 697 ± 75 ng/mL.
With “αAbu-DTrp-DTrp-Orn-NH2 [4-αAbu-DTrp-DTrp-Orn-NH2]” the “Unstimulated Basal GH release” value [3] was 85 ± 25 ng/mL, the “Unstimulated Basal GH release” value [1] was 88 ± 18 ng/mL and the “Unstimulated Basal GH release” value [2] was 50 ± 6 ng/mL.
In the case of “HW[dA][dW]FK-NH2 [11-His-Trp-DAla-DTrp-Phe-LysNH2]”, the “Unstimulated Basal GH release” value [10] is reported as 204 ± 44 ng/mL, the “Unstimulated Basal GH release” value [4] is reported as 127 ± 44 ng/mL and the “Unstimulated Basal GH release” value [5] is reported as 83 ± 5 ng/mL.
In the case of “AH[dW][dK]W[dF]K-NH2 [5-Ala-His-DTrp-DLys-Trp-DPhe-Lys-NH2]”, the “Stimulated GH release” value [18] is reported as 1487 ± 397 ng/mL.
“H[dW]FW[dF]K-NH2 [8-His-DTrp-Phe-Trp-DPhe-Lys-NH2]” was tested, and the “Unstimulated Basal GH release” value [10] was 67 ± 14 ng/mL, the “Unstimulated Basal GH release” value [4] was 141 ± 53 ng/mL and the “Unstimulated Basal GH release” value [5] was 197 ± 70 ng/mL. The “Unstimulated Basal GH release” value [6] was 509 ± 48 ng/mL.
With “Tyr-DAla-Sar-NMePhe-NH2 [2-Tyr-DAla-Sar-NMePhe-NH2]” the “Stimulated GH release (P + S)” value [8] was 24 ± 6 ng/mL and the “Unstimulated GH release (−S)” value [9] was 18 ± 4 ng/mL.
For “Alaψ[CH2NH]-DβNal-Ala-Trp-DPhe-Lys-NH2 [6-Alaψ[CH2NH]-DβNal-Ala-Trp-DPhe-Lys-NH2]”, the “Stimulated GH release” value [11] was 2771 ± 157 ng/mL, the “Stimulated GH release” value [12] was 2341 ± 416 ng/mL and the “Stimulated GH release” value [13] was 1948 ± 450 ng/mL. The “Stimulated GH release” value [14] was 1639 ± 221 ng/mL.
For “K[dH][dW]F-NH2 [8-Lys-DHis-DTrp-Phe-NH2]”, the “Unstimulated Basal GH release” value [1] was 121 ± 24 ng/mL.
